Values of other authors in patent US20100310652A1, “COATED EXTENDED RELEASE PHARMACEUTICAL COMPOSITIONS OF LEVETIRACETAM” (Alembic Limited, priority 2007, published 2010).
Converted amounts (≈) assume the structure as drawn.

Legend:
[1] = in 15 minutes, three different pH media
[2] = highly permeable

**Q.** For CC[C@@H](C(N)=O)N1CCCC1=O [Levetiracetam, (−)-(S)-α-ethyl-2-oxo-1-pyrrolidine acetamide], which drug released [1] is on record?
**A.** more than 85%

**Q.** And the “permeability (F)” value [2]?
**A.** > 90%

**Q.** And the aqueous solubility?
**A.** 1040 mg/mL (≈ 6110 mM)
